Like-named read-outs stand apart in the source and are kept apart here.
Assays:
human tumor cell lines = details: cited from earlier work
CYP3A4 = details: in vitro; ref studies done by Ariad Pharmaceuticals; cited from earlier work
[1] = test system: target lesions (solid tumors); assay: Tumor response by Response Evaluation Criteria in Solid Tumors; type: in vivo, patients
CYP3A5 = details: in vitro; ref studies done by Ariad Pharmaceuticals; cited from earlier work
Laboratory variables = type: in vivo; details: patients who received at least three doses; 95% CI −22.1 to −2.6
[2] = two multiple-dose toxicology studies in rats; ref nonclinical studies; cited from earlier work
[3] = Whole blood pharmacokinetics, LC-MS/MS, noncompartmental analysis; type: in vivo, patients; details: for half-life / AUC / Cmax / Vd / clearance: human, whole blood
[4] = Phase I dose escalation: safety, tolerability, MTD, DLT and adverse events
[5] = i.v. daily for 5 days every 2 weeks; ref 14 (Mita et al.); cited from earlier work
xenografts = details: cited from earlier work
[6] = in vivo
[7] = test system: 4E-BP1 phosphorylated at Ser^65/Thr^70; assay: 4E-BP1 phosphorylation in peripheral blood mononuclear cells; type: in vivo, patients; details: PBMC, 7 days after infusion, all doses
[8] = dose level 6.25 mg, 2 patients entered
[9] = dose level 12.5 mg, 3 patients entered
[10] = dose level 25 mg, 4 patients entered
[11] = dose level 50 mg, 16 patients entered
[12] = dose level 75 mg, 17 patients entered
[13] = dose level 100 mg, 4 patients entered

## CO[C@H]1C[C@@H]2CC[C@@H](C)[C@@](O)(O2)C(=O)C(=O)N2CCCC[C@H]2C(=O)O[C@H]([C@H](C)C[C@@H]2CC[C@@H](OP(C)(C)=O)[C@H](OC)C2)CC(=O)[C@H](C)/C=C(\C)[C@@H](O)[C@@H](OC)C(=O)[C@H](C)C[C@H](C)/C=C/C=C/C=C/1C [deforolimus]
Human tumor cell lines
  effect on proliferation of human tumor cell lines: inhibits proliferation
CYP3A4
  metabolism by CYP3A4: primarily metabolized by CYP3A4
[1]; 34 evaluable, after two cycles
  patients with disease progression: 12 patients
  patients with stable disease: 21 patients
[1]; 34 patients evaluable for response
  patients with partial response: 1 patient
[1]; after two cycles, n = 32, P = 0.015
  correlation r, AUC versus percent change in sum of target lesions: −0.43
[1]; after two cycles, n = 33, P = 0.28
  correlation r, dose versus percent change in sum of target lesions: −0.19
[1]; one patient with transitional cell carcinoma of the bladder, after two cycles
  shrinkage in target lesions: 34%
CYP3A5
  metabolism by CYP3A5: to a lesser extent
Laboratory variables
  estimated slope of nadir platelet count versus dose: −12.3 × 10^3/μL per 10 mg increase i
[2]
  no effect dose level / severely toxic dose level: neither a no effect dose level nor a severely toxic dose level was identified
[3]; dose range 6.25 to 100 mg
  dose proportionality of AUC: increased less than proportionally with an increase in dose
  dose proportionality of Cmax: increased less than proportionally with an increase in dose
[3]; intravenous
  half-life: 45 to 52 h
[3]; iv, 6.25 mg
  AUC: 3800 ng·h/mL
  Cmax: 329 ng/mL
  Vd: 80.3 L
  clearance: 28.3 mL/min
  half-life: 52.2 h
[3]; iv, 12.5 mg
  AUC: 5100 ng·h/mL
  Cmax: 394 ng/mL
  Vd: 111 L
  clearance: 45 mL/min
[3]; iv, 25 mg
  AUC: 9000 ng·h/mL
  Cmax: 570 ng/mL
  Vd: 136 L
  clearance: 48.3 mL/min
  half-life: 46.2 h
[3]; iv, 50 mg
  AUC: 10700 ng·h/mL
  Cmax: 982 ng/mL
  Vd: 235 L
  clearance: 81.7 mL/min
  half-life: 44.9 h
[3]; iv, 75 mg
  AUC: 12700 ng·h/mL
  Cmax: 1200 ng/mL
  Vd: 323 L
  clearance: 107 mL/min
  half-life: 47.3 h
[3]; iv, 100 mg
  AUC: 13400 ng·h/mL
  Cmax: 1260 ng/mL
  Vd: 373 L
  clearance: 128 mL/min
  half-life: 46 h
[3]; regression model with dose and gender, SE 0.41
  clearance difference, greater in females, estimated from the model: 1.49 L/h
[4]; 6.25 mg (n = 2)
  Abdominal pain, number of adverse events, any grade: 0
  Anemia, number of adverse events, any grade: 0
  Anorexia, number of adverse events, any grade: 2
  Constipation, number of adverse events, any grade: 1
  Cough, number of adverse events, any grade: 0
  Diarrhea, number of adverse events, any grade: 1
  Dysgeusia, number of adverse events, any grade: 1
  Fatigue, number of adverse events, any grade: 2
  Hyperglycemia, number of adverse events, any grade: 0
  Hypophosphatemia, number of adverse events, any grade: 0
  Mucosal inflammation, number of adverse events, any grade: 0
[4]; 12.5 mg (n = 3)
  Anemia, number of adverse events, any grade: 1
  Anorexia, number of adverse events, any grade: 2
  Constipation, number of adverse events, any grade: 2
  Cough, number of adverse events, any grade: 0
  Diarrhea, number of adverse events, any grade: 2
  Dysgeusia, number of adverse events, any grade: 0
  Fatigue, number of adverse events, any grade: 2
  Hyperglycemia, number of adverse events, any grade: 0
  Hypophosphatemia, number of adverse events, any grade: 0
  Mucosal inflammation, number of adverse events, any grade: 1
[4]; 25 mg (n = 4)
  Abdominal pain, number of adverse events, any grade: 0
  Anemia, number of adverse events, any grade: 1
  Anorexia, number of adverse events, any grade: 4
  Constipation, number of adverse events, any grade: 2
  Cough, number of adverse events, any grade: 0
  Diarrhea, number of adverse events, any grade: 2
  Dysgeusia, number of adverse events, any grade: 0
  Fatigue, number of adverse events, any grade: 3
  Hyperglycemia, number of adverse events, any grade: 0
  Hypophosphatemia, number of adverse events, any grade: 0
  Mucosal inflammation, number of adverse events, any grade: 1
[4]; 50 mg (n = 16)
  Anemia, number of adverse events grade 3 or 4: 1
  Anemia, number of adverse events, any grade: 5
  Dysgeusia, number of adverse events, any grade: 3
  Hyperglycemia, number of adverse events grade 3 or 4: 2
  Hyperglycemia, number of adverse events, any grade: 5
  Hypophosphatemia, number of adverse events grade 3 or 4: 3
  Hypophosphatemia, number of adverse events, any grade: 4
[4]; 50 mg dose level
  patients discontinued from the study due to adverse events: 3 patients
[4]; 75 mg (n = 17)
  Abdominal pain, number of adverse events grade 3 or 4: 1
  Abdominal pain, number of adverse events, any grade: 5
  Cough, number of adverse events, any grade: 3
  Hyperglycemia, number of adverse events grade 3 or 4: 4
  Hyperglycemia, number of adverse events, any grade: 5
  Mucosal inflammation, number of adverse events, any grade: 12
[4]; 75 mg dose level
  patients discontinued from the study due to adverse events: 3 patients
[4]; 75 mg dose level (17 patients)
  patients who developed grade 1 to 2 mucositis: Twelve
[4]; 100 mg (n = 4)
  Abdominal pain, number of adverse events grade 3 or 4: 1 (1)
  Abdominal pain, number of adverse events, any grade: 1 (1)
  Anemia, number of adverse events, any grade: 1
  Anorexia, number of adverse events, any grade: 3
  Constipation, number of adverse events, any grade: 3
  Cough, number of adverse events, any grade: 1
  Diarrhea, number of adverse events, any grade: 2
  Dysgeusia, number of adverse events, any grade: 1
  Fatigue, number of adverse events, any grade: 3
  Hyperglycemia, number of adverse events, any grade: 0
  Hypophosphatemia, number of adverse events grade 3 or 4: 1 (1)
  Hypophosphatemia, number of adverse events, any grade: 1 (1)
  Mucosal inflammation, number of adverse events grade 3 or 4: 1
  Mucosal inflammation, number of adverse events, any grade: 4
[4]; 100 mg dose level
  patients who required dosing delays and/or dose reduction secondary to mucositis: 3 of 4
[4]; 100 mg dose level (4 patients)
  patients who experienced mucositis: 4 patients
  patients with mucositis grade ≥3: 1 patients
[4]; all 46 patients
  patients who experienced an adverse event grade ≥3: 70%
  patients who required interruption of treatment or dose reduction on at least one occasion: Twenty-eight
[4]; all patients
  deaths thought to be related to deforolimus: no deaths thought to be related to deforolimus
  patients with serious adverse events: 22 patients
  serious adverse events: Thirty-two
[4]; all patients, weekly schedule
  incidence of hypercholesterolemia: 7%
  incidence of hyperglycemia: 22%
  incidence of hypertriglyceridemia: 9%
[4]; [8]
  No. patients requiring dose interruptions or reductions: 0
  No. patients requiring dose reductions: 0
[4]; dose level 12.5 mg
  No. patients requiring dose interruptions or reductions, at least possibly related to deforolimus: 0
[4]; [9]
  No. patients requiring dose interruptions or reductions: 2
  No. patients requiring dose reductions: 0
[4]; dose level 25 mg
  No. patients requiring dose interruptions or reductions, at least possibly related to deforolimus: 0
[4]; [10]
  No. patients requiring dose interruptions or reductions: 3
  No. patients requiring dose reductions: 0
[4]; dose level 50 mg
  No. patients requiring dose interruptions or reductions, at least possibly related to deforolimus: 5
[4]; [11]
  No. patients requiring dose interruptions or reductions: 8
  No. patients requiring dose reductions: 3
[4]; dose level 75 mg
  No. patients requiring dose interruptions or reductions, at least possibly related to deforolimus: 9
[4]; [12]
  No. patients requiring dose interruptions or reductions: 12
  No. patients requiring dose reductions: 2
[4]; dose level 100 mg
  No. patients requiring dose interruptions or reductions, at least possibly related to deforolimus: 3 (3)
[4]; [13]
  No. patients requiring dose interruptions or reductions: 3 (3)
  No. patients requiring dose reductions: 2
[4]; i.v. once weekly
  main dose-limiting toxicity (DLT): mucositis
[4]; i.v. over 30 min every 7 days, flat dosing
  maximum tolerated dose (MTD): 75 mg
[4]; of six patients with treatment discontinued
  treatment discontinuations thought to be possibly, probably or definitely related to the study drug: 4 patients
[4]; proportional odds model, univariate, 95% CI 1.21–2.07
  factor of increase in odds of more severe mucositis per 10 mg increase in dose: 1.58
[5]
  incidence of hypercholesterolemia: 28%
  incidence of hyperglycemia: 28%
  incidence of hypertriglyceridemia: 41%
xenografts
  effect on proliferation of xenografts: inhibits proliferation
[6]; human
  Abdominal pain, number of adverse events, any grade: 14
  Nausea, number of adverse events, any grade: 26
  Rash, number of adverse events, any grade: 22
  incidence of anorexia: 67%
  incidence of diarrhea: 50%
  incidence of fatigue: 76%
  incidence of mucositis: 63%
  incidence of nausea: 57%
  patients who experienced an adverse event: 46 patients
[6]
  tolerability of the dose level: intolerable
[7]
  median inhibition of 4E-BP1 phosphorylation: > 70%

## CO[C@H]1C[C@@H]2CC[C@@H](C)[C@@](O)(O2)C(=O)C(=O)N2CCCC[C@H]2C(=O)O[C@H]([C@H](C)C[C@@H]2CC[C@@H](O)[C@H](OC)C2)CC(=O)[C@H](C)/C=C(\C)[C@@H](O)[C@@H](OC)C(=O)[C@H](C)C[C@H](C)/C=C/C=C/C=C/1C [sirolimus, reference compound]
CYP3A4
  metabolism by CYP3A4: primarily metabolized by CYP3A4

Source: publication PMC3147153 (Clinical cancer research : an official journal of the …, 2009)
